PubChem BioAssay AID1259411 (Chemical Carcinogenesis Research Information System (CCRIS), 2018)
Active and inactive are the calls of the source. How the calls were made is not given here.

System: rodent carcinogenicity bioassays, tumor incidence
Assay: CCRIS carcinogenicity studies
Method in brief: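 Archive of carcinogenicity, mutagenicity, tumor promotion and tumor inhibition results drawn from journals, NCI reports and other sources, expert-reviewed; covers 1985-2011 and is no longer updated.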

CCCCN(CC)c1c([N+](=O)[O-])cc(C(F)(F)F)cc1[N+](=O)[O-]
carcinogen call (Species: Mouse, Strain/Sex: B6C3F1/Female, Route: Oral, Dose: 0, 0.005, 0.03, 0.15% in diet for 2 yrs in 2 replicates of 30 mice/sex/group, Dose: 0, 0.005, 0.03, 0.15% in diet for 2 yrs in 2 replicates of 30 mice/sex/group): inactive; negative; slight but not statistically elevated incidence of total neoplastic tu | carcinogen call (Species: Mouse, Strain/Sex: B6C3F1/Male, Route: Oral, Dose: 0, 0.005, 0.03, 0.15% in diet for 2 yrs in 2 replicates of 30 mice/sex/group, Dose: 0, 0.005, 0.03, 0.15% in diet for 2 yrs in 2 replicates of 30 mice/sex/group): inactive; negative; slight but not statistically elevated incidence of total neoplastic t | carcinogen call (Species: Rat, Strain/Sex: CDF (F344)CrlBR/Female (50/sex/group), Route: Oral, Dose: 0, 10, 100, 2500, 5000 ppm (about 0; 0.7; 6.8; 168; 331 mg/kg/day ) in diet for 104 wks, Dose: 0, 10, 100, 2500, 5000 ppm (about 0; 0.7; 6.8; 168; 331 mg/kg/day ) in diet for 104 wks, Tumor Site: Type of Lesion: Thyroid: thyroid follicular adenomas and carcinomas (0/50; 0/50; 1/50; 5/50; 4/50)): active; positive; ca dpr judged the study as showing possible adverse effects | carcinogen call (Species: Rat, Strain/Sex: CDF (F344)CrlBR/Male (50/sex/group), Route: Oral, Dose: 0, 10, 100, 2500, 5000 ppm (about 0; 0.5; 5.4; 136; 275 mg/kg/day ) in diet for 104 wks, Dose: 0, 10, 100, 2500, 5000 ppm (about 0; 0.5; 5.4; 136; 275 mg/kg/day ) in diet for 104 wks, Tumor Site: Type of Lesion: Thyroid: thyroid follicular adenomas and carcinomas (1/50; 1/50; 7/50; 8/50) Liver: Hepatocellular tumors (primari): active; positive; ca dpr judged the study as showing possible adverse effects

CC(Cl)(Cl)Cl
carcinogen call (Species: MOUSE, Strain/Sex: B6C3F1/FEMALE, Route: INHALATION, Dose: 0, 150, 500, 1500 PPM IN AIR 6 HR/D 5 D/WK FOR 24 MO (STUDY DURATION: 24 MO), Dose: 0, 150, 500, 1500 PPM IN AIR 6 HR/D 5 D/WK FOR 24 MO (STUDY DURATION: 24 MO)): inactive; negative | carcinogen call (Species: MOUSE, Strain/Sex: B6C3F1/MALE, Route: INHALATION, Dose: 0, 150, 500, 1500 PPM IN AIR 6 HR/D 5 D/WK FOR 24 MO (STUDY DURATION: 24 MO), Dose: 0, 150, 500, 1500 PPM IN AIR 6 HR/D 5 D/WK FOR 24 MO (STUDY DURATION: 24 MO)): inactive; negative | carcinogen call (Species: RAT, Strain/Sex: F344/FEMALE, Route: INHALATION, Dose: 0, 150, 500, 1500 PPM IN AIR 6 HR/D 5 D/WK FOR 24 MO (STUDY DURATION: 24 MO), Dose: 0, 150, 500, 1500 PPM IN AIR 6 HR/D 5 D/WK FOR 24 MO (STUDY DURATION: 24 MO)): inactive; negative | carcinogen call (Species: RAT, Strain/Sex: F344/MALE, Route: INHALATION, Dose: 0, 150, 500, 1500 PPM IN AIR 6 HR/D 5 D/WK FOR 24 MO (STUDY DURATION: 24 MO), Dose: 0, 150, 500, 1500 PPM IN AIR 6 HR/D 5 D/WK FOR 24 MO (STUDY DURATION: 24 MO)): inactive; negative

O=[N+]([O-])c1ccc(Oc2ccc(Cl)cc2Cl)cc1
carcinogen call (Species: MOUSE, Strain/Sex: B6C3F1/FEMALE, Route: ORAL, Dose: 0, 2348, 4696 PPM IN DIET, TWA, Dose: 0, 2348, 4696 PPM IN DIET, TWA, Tumor Site: Type of Lesion: LIVER: HEPATOCELLULAR CARCINOMA OR NEOPLASTIC NODULE): active; positive | carcinogen call (Species: MOUSE, Strain/Sex: B6C3F1/FEMALE, Route: ORAL, Dose: 0, 3000, 6000 PPM IN DIET, Dose: 0, 3000, 6000 PPM IN DIET, Tumor Site: Type of Lesion: LIVER: HEPATOCELLULAR ADENOMA OR CARCINOMA): active; positive | carcinogen call (Species: MOUSE, Strain/Sex: B6C3F1/MALE, Route: ORAL, Dose: 0, 2348, 4696 PPM IN DIET, TWA, Dose: 0, 2348, 4696 PPM IN DIET, TWA, Tumor Site: Type of Lesion: LIVER: HEPATOCELLULAR CARCINOMA): active; positive | carcinogen call (Species: MOUSE, Strain/Sex: B6C3F1/MALE, Route: ORAL, Dose: 0, 3000, 6000 PPM IN DIET, Dose: 0, 3000, 6000 PPM IN DIET, Tumor Site: Type of Lesion: LIVER: HEPATOCELLULAR ADENOMA OR CARCINOMA): active; positive | carcinogen call (Species: RAT, Strain/Sex: F344/FEMALE, Route: ORAL, Dose: 0, 3000, 6000 PPM IN DIET, Dose: 0, 3000, 6000 PPM IN DIET): inactive; negative | carcinogen call (Species: RAT, Strain/Sex: F344/MALE, Route: ORAL, Dose: 0, 3000, 6000 PPM IN DIET, Dose: 0, 3000, 6000 PPM IN DIET): inactive; negative | carcinogen call (Species: RAT, Strain/Sex: OSBORNE-MENDEL/FEMALE, Route: ORAL, Dose: 0, 1300, 2600 PPM IN DIET, TWA, Dose: 0, 1300, 2600 PPM IN DIET, TWA, Tumor Site: Type of Lesion: PANCREAS: CARCINOMA): active; positive

CN(N)C=O
carcinogen call (Species: MOUSE, Strain/Sex: SWISS/FEMALE, Route: ORAL, Dose: 0, 0.0078% SOLUTION IN DRINKING WATER STARTING AT 6 WK OF AGE FOR LIFE FOR AVERAGE DAILY INTAKE OF 0 OR 0.80 MG (STUDY D, Tumor Site: Type of Lesion: LIVER: HEPATOMA OR CARCINOMA, LUNG: ADENOMA OR ADENOCARCINOMA): active; positive | carcinogen call (Species: MOUSE, Strain/Sex: SWISS/MALE, Route: ORAL, Dose: 0, 0.0078% SOLUTION IN DRINKING WATER STARTING AT 6 WK OF AGE FOR LIFE FOR AVERAGE DAILY INTAKE OF 0 OR 0.99 MG (STUDY D, Tumor Site: Type of Lesion: LIVER: HEPATOMA OR CARCINOMA, LUNG: ADENOMA OR ADENOCARCINOMA, GALLBLADDER: ADENOMA, BILE DUCT: CHOLANGIOMA OR CHOLANGIO, Tumor Site: Type of Lesion: LIVER: HEPATOMA OR CARCINOMA, LUNG: ADENOMA OR ADENOCARCINOMA, GALLBLADDER: ADENOMA, BILE DUCT: CHOLANGIOMA OR CHOLANGIO): active; positive

O=NN1CCC1
carcinogen call (Species: HAMSTER, Strain/Sex: SYRIAN/MALE, Route: INTRAGASTRIC, Dose: 0, 50 MG/ML IN 0.2 ML STERILIZED WATER 1/WK FOR 50 WK (TOTAL DOSE 500 MG) (STUDY DURATION: LIFESPAN), Tumor Site: Type of Lesion: LIVER: ADENOMA, HEPATOCELLULAR CARCINOMA, HEMANGIOSARCOMA, NOSE: CARCINOMA): active; positive

CCCCCOC(=O)COc1cc(N2C(=O)C3=C(CCCC3)C2=O)c(F)cc1Cl
carcinogen call (Species: Mouse, Strain/Sex: CD-1 (ICR)/Female (51/Group), Route: Oral, Dose: 0, 37.8, 368.1, 850.1 mg/kg/day of 94.7% flumiclorac pentyl in diet for 78 wk, study duration 78 wk, Dose: 0, 37.8, 368.1, 850.1 mg/kg/day of 94.7% flumiclorac pentyl in diet for 78 wk, study duration 78 wk): inactive; negative | carcinogen call (Species: Mouse, Strain/Sex: CD-1 (ICR)/Male (51/Group), Route: Oral, Dose: 0, 31.5, 307.9, 731.4 mg/kg/day of 94.7% flumiclorac pentyl in diet for 78 wk, study duration 78 wk, Dose: 0, 31.5, 307.9, 731.4 mg/kg/day of 94.7% flumiclorac pentyl in diet for 78 wk, study duration 78 wk): inactive; negative | carcinogen call (Species: Rat, Strain/Sex: Crj:CD(SD)/Female (50/Group), Route: Oral, Dose: 0, 4.3, 43.6, 443.8, 919.4 mg/kg/day of 94.4% flumiclorac pentyl in diet for 24 mo, study duration 24 mo, Dose: 0, 4.3, 43.6, 443.8, 919.4 mg/kg/day of 94.4% flumiclorac pentyl in diet for 24 mo, study duration 24 mo): inactive; negative | carcinogen call (Species: Rat, Strain/Sex: Crj:CD(SD)/Male (50/Group), Route: Oral, Dose: 0, 3.5, 35.4, 360.4, 744.9 mg/kg/day of 94.4% flumiclorac pentyl in diet for 24 mo, study duration 24 mo, Dose: 0, 3.5, 35.4, 360.4, 744.9 mg/kg/day of 94.4% flumiclorac pentyl in diet for 24 mo, study duration 24 mo): inactive; negative

C[C@]12CC[C@@H]3c4ccc(OC(=O)c5ccccc5)cc4CC[C@H]3[C@@H]1CC[C@@H]2O
carcinogen call (Species: MOUSE, Route: SUBCUTANEOUS, Tumor Site: Type of Lesion: TESTES, PITUITARY GLAND, CERVIX, UTERUS, Tumor Site: Type of Lesion: TESTES, PITUITARY GLAND, CERVIX, UTERUS): active; positive | carcinogen call (Species: RAT, Route: SUBCUTANEOUS IMPLANT, Tumor Site: Type of Lesion: PITUITARY GLAND): active; positive

NC(=O)NC1NC(=O)NC1=O (stereo not given)
carcinogen call (Species: RAT, Strain/Sex: F344/FEMALE, Route: ORAL, Dose: 0, 2000 PPM IN DIET FOR 106 WK (STUDY DURATION: 130 WK)): inactive; negative | carcinogen call (Species: RAT, Strain/Sex: F344/MALE, Route: ORAL, Dose: 0, 2000 PPM IN DIET FOR 106 WK (STUDY DURATION: 130 WK)): inactive; negative

CC(C)N=C=NC(C)C
carcinogen call (Species: Mouse, Strain/Sex: B6C3F1/Female (50/Group), Route: Dermal, Dose: 0, 10, 20, 40 mg/kg in anhydrous ethanol 5 d/wk for 2 yr, Dose: 0, 10, 20, 40 mg/kg in anhydrous ethanol 5 d/wk for 2 yr): inactive; negative | carcinogen call (Species: Mouse, Strain/Sex: B6C3F1/Male (50/Group), Route: Dermal, Dose: 0, 10, 20, 40 mg/kg in anhydrous ethanol 5 d/wk for 2 yr, Dose: 0, 10, 20, 40 mg/kg in anhydrous ethanol 5 d/wk for 2 yr): inactive; negative | carcinogen call (Species: Rat, Strain/Sex: F344/N/Female (50/Group), Route: Dermal, Dose: 0, 10, 20, 40 mg/kg in anhydrous ethanol 5 d/wk for 2 yr, Dose: 0, 10, 20, 40 mg/kg in anhydrous ethanol 5 d/wk for 2 yr): inactive; negative | carcinogen call (Species: Rat, Strain/Sex: F344/N/Male (50/Group), Route: Dermal, Dose: 0, 10, 20, 40 mg/kg in anhydrous ethanol 5 d/wk for 2 yr, Dose: 0, 10, 20, 40 mg/kg in anhydrous ethanol 5 d/wk for 2 yr): inactive; negative
